Patent US4649136A, “Cephem compounds” (Fujisawa Pharmaceutical Co., Ltd., priority 1981, dated 1987)
In brackets after ≈: the same amount, converted by molar mass.

Assays:
Urinary excretion = assay type: in vivo; conditions: rat; rats; oral administration of 100 mg/kg; urine 0 to 6 and 6 to 24 hours; bioassay; read-out: Urinary recovery in 24 hours (%)
Experimental: Urine of rats was collected with a urine collector at 0 to 6, and 6 to 24 hours after oral administration of 100 mg/kg of the test antibiotic. The antibiotic levels in the urine samples were bioassayed with the standard solution prepared with M/15 phosphate buffer (pH 7.0) and the urinary recovery in 24 hours was calculated.

in vivo = conditions: rat, po, 100 mg/kg
Experimental: Rats anesthetized with pentobarbital were fixed in supine position, and a polyethylene cannula was inserted into the bile duct. Bile samples were collected at 0 to 3, 3 to 6, and 6 to 24 hours after oral administration of 100 mg/kg of the test antibiotic. The antibiotic levels in the bile samples were bioassayed with the standard solution prepared with M/15 phosphate buffer (pH 7.0) and the biliary recovery in 24 hours were calculated.

Proteus mirabilis 18 = experiment: In vitro antibacterial activity, two-fold agar-plate dilution method (MIC); assay type: cell-based; conditions: HI-agar, 10^8 viable cells per ml, 37° C., 20 hours
Experimental: (§1) In vitro antibacterial activity was determined by the two-fold agar-plate dilution method as described below. One loopful of an overnight culture of each test strain in Trypticase-soy broth (10^8 viable cells per ml) was streaked on heart infusion agar (HI-agar) containing graded concentrations of representative test compound, and the minimal inhibitory concentration (MIC) was expressed in terms of μg/ml after incubation at 37° C. for 20 hours.

Klebsiella pneumoniae 7 = experiment: as above; assay type: cell-based; conditions: HI-agar, 10^8 viable cells per ml, 37° C., 20 hours
Experimental: as §1

O=C(O)CO/N=C(\C(=O)NC1C(=O)N2C(C(=O)O)=CCSC12)c1cscn1 (stereo not drawn) [Compound .circle.A, 7-[2-Carboxymethoxyimino-2-(4-thiazolyl)acetamido]-3-cephem-4-carboxylic acid (syn isomer)]
dose excreted at 24 h (Urinary excretion): 43.5%
dose excreted at 24 h (in vivo): 7.9%
MIC (Proteus mirabilis 18): 0.05 µg/mL (≈ 0.121 µM)
MIC (Klebsiella pneumoniae 7): 0.05 µg/mL (≈ 0.121 µM)
